Data on 8 molecules can be found in patent publication US7553667B2, “Regulation of gene expression using chromatin remodelling factors” (Her Majesty the Queen in right of Canada as represented by …, priority 2002, dated 2009).

For one data set, the system named is BnSCL1 gene expression. The data set is described as follows: Quantitative one-step RT-PCR of BnSCL1 expression in treated seedlings. The class given is in vivo, Brassica napus. The procedure:
In exogenous applied auxin treatments, four-leaf stage seedlings grown at 20° C. were treated with a foliar spray containing 1 mM 2,4-D and 50 mM sodium phosphate, pH 7.5. The four leaves were collected at 30 min, 60 min and 180 min after the first foliar application of 2,4-D. For the measurement of response of shoots and roots to auxin, sterilized seeds were germinated on plates in a growth chamber with continuous light at 20° C., and 10 dpg seedlings were supplied with varied concentration of 2,4-D. In the auxin transport inhibition experiments, 9 dpg seedlings were incubated in the medium supplemented with 50 μM NPA dissolved in 0.1% DMSO for 24 h before the 2,4-D treatment. For the HDAC inhibitor treatments, 10 mM sodium butyrate was added onto the growth medium and incubated for 24 h followed by exogenous 2,4-D application at varied concentrations.
Total RNA extracted as described above was treated with Amplification Grade Deoxyribonuclease I (GibcoL BRL) following the manufacture's instructions. The RNA samples were then directly used for reverse transcription prior to amplification without purification. The RT-PCR was quantitatively performed and completed in a one-step reaction using […] One-Step RT-PCR System (GibcoL BRL) as described by Gao et al. (2002). Gene-specific sense and anti-sense primers used to generate a 960 bp fragment of Brassica napus Actin, as an internal standard, were as described in Gao et al., (2002). Gene-specific primers for the generation of BnSCL1, BnIAA1 and BnIAA12 fragments were as follows: […]

The next data set concerns bnKCP1 expression. Nature of the data set: Northern blot of bnKCP1 expression in leaves of treated seedlings. Type of data set: in vivo, Brassica napus. The conditions noted are these: for bnKCP1 transcript in leaves after treatment: four-leaf stage seedlings, room temperature, 10 μM inomycin or 20 mM LaCl3. As for the experimental part: Brassica napus L. cv Cascade (winter type), Westar (spring type) and DES010 (spring type) were used for the isolation of genomic DNA and total RNA. Leaves, flowers, stems, siliques and immature seeds were harvested from plants cultured in a controlled-environment greenhouse programmed for a photoperiod of 16 h day and 8 h night. Roots were obtained by culturing sterilized seeds in 0.8% agar plates containing ½ MS medium and 1% sucrose. For cold acclimation (4° C.), abscisic acid (250 μM), drought and high salt (850 mM NaCl) treatments, four-leaf stage seedlings were treated and fourth fully expanded leaf blades were harvested as described by Gao et al. (2002). LaCl3 and inomycin treatments were carried out by watering four-leaf stage plants with 20 mM LaCl3 and 10 μM inomycin, respectively. Plants were covered with SARAN Wrap to slow evaporation.
Total RNA was isolated from the tissues of B. napus L. cv DES010. These included leaves and stems of four-leaf stage seedlings, flowers, immature siliques of adult plants, and roots of cultured seedlings as described by Gao et al. (2001). Probe labelling, hybridization, washing and membrane stripping were performed as described above in the Southern blot analysis Section.

In data set [1] the test system is lacZ reporter gene driven by promoter containing GAL4 DNA binding sites. Nature of the data set: Transactivation assay of bnKCP1 using yeast one-hybrid system. Type of data set: cell-based, yeast MaV203. Conditions: transactivation in yeast. From the text:
Effector plasmids pDBLeu-bnKCP1^1-160, pDBLeu-bnKCP1^1-80, pDBLeu-bnKCP1^81-215 and pDBLeu-bnKCP1 were constructed by ligating the PCR-amplified fragments ΔbnKCP1^1-160, ΔbnKCP1^1-80, ΔbnKCP1^81-215 and the coding region of bnKCP1 into the SalI/NotI sites of pDBLeu vector (GibcoL BRL) in-frame with the GAL4 DB sequence. The oligonucleotide primers for PCR amplification were as follows: […]
The three reporter genes, lacZ, HIS3 and URA3, which were chromosomally integrated in the genome of MaV203 yeast cells were driven by unrelated promoters containing GAL4 DNA binding sites (GibcoL BRL). For transient assays, the effector constructs or the negative control vector pDBLeu were transferred to the MaV203 yeast cells. The β-galactosidase activity was measured using CPRG (chlorophenol red-β-D-galactopyranoside) according to the manufacturer's instructions (GibcoL BRL). The MaV203 cells containing plasmids pDBLeu-HDA19 and pPC86-bnKCP1 were used as the positive control. In addition, we used three yeast control strains A, B, and C (GibcoL BRL), which were developed to contain plasmid pairs expressing fusion proteins with none, weak and moderately strong protein-protein interaction strength, respectively. Transient Expression of the GUS-bnCKP1 Fusion Protein

The target in the next data set is T1, GST-Gcn5 (Arabidopsis thaliana, UniProt Q9AR19).
T1 construct: made in house; host or cells: E. coli BL21-CodonPlus (DE3)-RP
T1 sequence (Q9AR19 1-568): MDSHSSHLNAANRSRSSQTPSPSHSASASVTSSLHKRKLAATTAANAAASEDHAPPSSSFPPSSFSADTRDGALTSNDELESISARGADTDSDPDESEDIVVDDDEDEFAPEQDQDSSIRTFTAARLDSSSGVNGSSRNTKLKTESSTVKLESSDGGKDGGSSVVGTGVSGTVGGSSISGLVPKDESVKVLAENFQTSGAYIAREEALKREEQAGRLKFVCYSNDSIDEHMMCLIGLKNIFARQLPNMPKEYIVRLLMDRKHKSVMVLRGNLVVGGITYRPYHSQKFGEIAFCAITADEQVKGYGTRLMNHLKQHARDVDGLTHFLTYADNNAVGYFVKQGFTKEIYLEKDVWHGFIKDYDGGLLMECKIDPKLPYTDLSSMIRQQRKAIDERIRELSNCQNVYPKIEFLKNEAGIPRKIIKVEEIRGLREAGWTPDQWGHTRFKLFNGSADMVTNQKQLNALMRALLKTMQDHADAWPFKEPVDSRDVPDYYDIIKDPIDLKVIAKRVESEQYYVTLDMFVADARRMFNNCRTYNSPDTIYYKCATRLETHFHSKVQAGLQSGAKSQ
The data set is described as follows: GST pulldown affinity assay of bnKCP1 and mutants with GST-Gcn5. The class given is binding. Conditions: [35S]Met-labeled in vitro translated protein. An excerpt: (§1) The full coding regions of the Arabidopsis HAT, Gcn5 (Dr. M. Thomashow, Michigan State University, MI), and HDA19 (Accession # AF195547) were PCR amplified, sequence analyzed and inserted in-frame with the GST (glutathione s-transferase) into the SalI and NotI sites of vector pGEX-6P-2 (Amersham Pharmacia). The forward used for the amplification of Gcn5 was:
(§2) Recombinant pGEX-6P-2 plasmids were used to transform E. coli BL21-CodonPlus (DE3)-RP competent cells (Stratagene). Expression and purification under non-denaturing conditions were carried out as described by Gao et al. (Gao, M.-J. et al., 2002). The GST-Gcn5 and GST-HDA19 fusion proteins were analyzed by 7.5% SDS-PAGE (SDS-polyacrylamide gel electrophoresis) and western blotting with rabbit anti-GST-Pi polyclonal antibody (Chemicon) using ECL Western blotting analysis system (Amersham Pharmacia).
(§3) Full-length bnKCP1 and truncated mutant bnKCP1^1-160 and bnKCP1^1-80 proteins labeled with [^35S]methionine were produced using TNT-Quick Coupled Transcription/Translation System (Promega) according to the manufacture's instructions, with some modifications. A total of 1 μl of RNase inhibitor (GibcoL BRL) and 1 μl of protease inhibitors set (Roche) were added to the lysate reaction. After incubation for 90 min at 30° C., RNase A was added to the reaction to a final concentration of 0.2 mg/ml and incubated for 5 min at the same temperature.
In vitro protein interaction was detected with GST pulldown affinity assays as described by Ahmad et al. (1999) with some modifications. […] After washing six times with 1.2 ml of bead-binding buffer without BSA and EtBr but containing 12 μl of protease inhibitors set (Roche), the bound proteins were eluted with 30 μl of 2×SDS loading buffer, boiled for 2 min and analyzed by 12% SDS-PAGE. […]

For another data set, the target named is T2, GST-HDA19 (Arabidopsis thaliana, UniProt O22446).
T2 construct: made in house; host or cells: E. coli BL21-CodonPlus (DE3)-RP
T2 sequence (O22446 1-501): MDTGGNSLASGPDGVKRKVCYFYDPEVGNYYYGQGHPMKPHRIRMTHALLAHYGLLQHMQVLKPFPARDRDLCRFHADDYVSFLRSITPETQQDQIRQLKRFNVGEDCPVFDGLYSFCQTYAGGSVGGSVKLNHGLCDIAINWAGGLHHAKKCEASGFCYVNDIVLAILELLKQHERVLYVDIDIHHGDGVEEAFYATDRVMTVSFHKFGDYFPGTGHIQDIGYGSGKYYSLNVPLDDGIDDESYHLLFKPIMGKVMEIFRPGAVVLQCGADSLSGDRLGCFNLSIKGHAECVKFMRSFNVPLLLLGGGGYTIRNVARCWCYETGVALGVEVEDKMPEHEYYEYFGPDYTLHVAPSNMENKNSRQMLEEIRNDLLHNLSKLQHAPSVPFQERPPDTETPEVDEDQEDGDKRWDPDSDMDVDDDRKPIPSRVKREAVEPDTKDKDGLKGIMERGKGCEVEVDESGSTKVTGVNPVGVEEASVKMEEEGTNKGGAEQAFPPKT
The data set is described as follows: GST pulldown affinity assay of bnKCP1 and mutants with GST-HDA19. The class given is binding. Conditions: [35S]Met-labeled in vitro translated protein.
Description: as §1, §2, §3
In vitro protein interaction was detected with GST pulldown affinity assays as described by Ahmad et al. (1999) with some modifications. Briefly, 6 μg of GST or 4 μg of GST-fusion protein was incubated with 5 μl of [^35S]Met-labeled translation mixture in 200 μl of bead-binding buffer (50 mM K-phosphate, pH 7.6, 450 mM KCl, 10 mM MgCl2, 10% glycerol, 1% Triton X-100, 1% BSA and 1 μl of diluted 1:12 protease inhibitors set) for 1 h at room temperature. After incubation, 20 μl of 50% slurry of glutathione-Sepharose beads containing 10 mg/ml of BSA and 4 μg of EtBr was mixed with the reaction mixture followed by gentle rotation for 1 h at 4° C. After washing six times with 1.2 ml of bead-binding buffer without BSA and EtBr but containing 12 μl of protease inhibitors set (Roche), the bound proteins were eluted with 30 μl of 2×SDS loading buffer, boiled for 2 min and analyzed by 12% SDS-PAGE. After electrophoresis, the gels were dried, treated with Amplify (Amersham Pharmacia) and subjected to fluorography.

As to `O=C(O)COc1ccc(Cl)cc1Cl` [2,4-D], the “BnSCL1 expression in roots” value with BnSCL1 gene expression (10 dpg seedlings, 100 μM required to produce an effect) was “upregulated”. In the data set on BnSCL1 gene expression (10 dpg seedlings, even at the lowest level (1 pM)), the “expression of BnSCL1 in shoots” value is “rapidly downregulated”. In addition, in the data set with BnSCL1 gene expression (four-leaf stage seedlings, leaves, within 30 min of 1 mM foliar application, vs untreated plants), the “increase of BnSCL1 mRNA accumulation” value is “approximately 50%”.

For `CC1=CC(=O)CC(C)(C)[C@@]1(O)/C=C/C(C)=C\C(=O)O` [ABA, abscisic acid], the “bnKCP1 expression in leaf blades after treatment” value with bnKCP1 expression (exogenous application for up to 8 hours, data not shown) is listed as “not detected”.

For the molecule `O=C(O)c1ccccc1C(=O)Nc1cccc2ccccc12` [NPA, naphthylphthalamic acid], in the data set with BnSCL1 gene expression (50 μM for 24 h before 2,4-D at different concentrations), the “BnSCL1 mRNA accumulation profiles in response to auxin in shoots and roots” value is “not changed”.

Take inomycin: in the data set on bnKCP1 expression, the “bnKCP1 transcript in leaves after treatment” value is recorded as “rapid (2 hrs) but short-lived”.

As for `[Cl][La]([Cl])[Cl]` [LaCl3], in the data set on bnKCP1 expression, the “bnKCP1 transcript in leaves after treatment” value is listed as “undetectable”.

B1: ΔbnKCP1^1-160: C-terminal truncated mutant of bnKCP1, residues 1-160, lacking the KID domain (protein)
chain: MAGGGPTFSIELSAYGSDLPTDKASGDIPNEEGSGLSRVGSGIWSGRTVDYSSESSSSIGTPGDSEEEDEESEEDNDEEELGLASLRSLEDSLPSKGLSSHYKGKSKSFGNLGEIGSVKEVPKQENPLNKKRRLQIYNKLARKSFYSWQNPKSMPLLPVH
B1: the “influence of deletion of KID or GKSKS domains on β-galactosidase activity” value in data set [1] is listed as “no significant influence”. In addition, in the data set with GST-Gcn5, the “in vitro binding to GST-Gcn5” value is recorded as “no interaction”. The “in vitro binding to GST-HDA19” value with GST-HDA19 is “no interaction”.

B2: bnKCPG^188: bnKCP1 with S188 mutated to G188 by site-directed mutagenesis (protein)
chain: MAGGGPTFSIELSAYGSDLPTDKASGDIPNEEGSGLSRVGSGIWSGRTVDYSSESSSSIGTPGDSEEEDEESEEDNDEEELGLASLRSLEDSLPSKGLSSHYKGKSKSFGNLGEIGSVKEVPKQENPLNKKRRLQIYNKLARKSFYSWQNPKSMPLLPVHEDNDDEEGDDGDLSDEERGGDVLARRPGFKNRALKSMSCFALSDLQEEEEEEEDE
In the case of B2, the “in vitro binding to GST-HDA19” value in the data set with GST-HDA19 was “significantly reduced binding”.

B3: ΔbnKCP1^1-80: C-terminal truncated mutant of bnKCP1, residues 1-80, lacking the KID domain (protein)
chain: MAGGGPTFSIELSAYGSDLPTDKASGDIPNEEGSGLSRVGSGIWSGRTVDYSSESSSSIGTPGDSEEEDEESEEDNDEEE
Regarding B3, the “influence of deletion of KID or GKSKS domains on β-galactosidase activity” value in data set [1] is reported as “no significant influence”. In addition, the “in vitro binding to GST-Gcn5” value in the data set with GST-Gcn5 is given as “no interaction”. For the same molecule, the “in vitro binding to GST-HDA19” value with GST-HDA19 is “no interaction”.
